Each structure is given as a SMILES string. Bounds are passed on as bounds.

In this assay the target is T1, aryl hydrocarbon receptor (AhR) (Homo sapiens, UniProt P35869).
T1 construct: The HepG2 CYP1A1-Luc cells do express basal luciferase activity that can be increased via potent AhR agonists or decreased via potent AhR antagonists; endogenous in cells; host or cells: HepG2 (DSMZ # ACC 180) stably carrying a CYP1A1 promoter-firefly luciferase reporter
T1 sequence (P35869 11-848): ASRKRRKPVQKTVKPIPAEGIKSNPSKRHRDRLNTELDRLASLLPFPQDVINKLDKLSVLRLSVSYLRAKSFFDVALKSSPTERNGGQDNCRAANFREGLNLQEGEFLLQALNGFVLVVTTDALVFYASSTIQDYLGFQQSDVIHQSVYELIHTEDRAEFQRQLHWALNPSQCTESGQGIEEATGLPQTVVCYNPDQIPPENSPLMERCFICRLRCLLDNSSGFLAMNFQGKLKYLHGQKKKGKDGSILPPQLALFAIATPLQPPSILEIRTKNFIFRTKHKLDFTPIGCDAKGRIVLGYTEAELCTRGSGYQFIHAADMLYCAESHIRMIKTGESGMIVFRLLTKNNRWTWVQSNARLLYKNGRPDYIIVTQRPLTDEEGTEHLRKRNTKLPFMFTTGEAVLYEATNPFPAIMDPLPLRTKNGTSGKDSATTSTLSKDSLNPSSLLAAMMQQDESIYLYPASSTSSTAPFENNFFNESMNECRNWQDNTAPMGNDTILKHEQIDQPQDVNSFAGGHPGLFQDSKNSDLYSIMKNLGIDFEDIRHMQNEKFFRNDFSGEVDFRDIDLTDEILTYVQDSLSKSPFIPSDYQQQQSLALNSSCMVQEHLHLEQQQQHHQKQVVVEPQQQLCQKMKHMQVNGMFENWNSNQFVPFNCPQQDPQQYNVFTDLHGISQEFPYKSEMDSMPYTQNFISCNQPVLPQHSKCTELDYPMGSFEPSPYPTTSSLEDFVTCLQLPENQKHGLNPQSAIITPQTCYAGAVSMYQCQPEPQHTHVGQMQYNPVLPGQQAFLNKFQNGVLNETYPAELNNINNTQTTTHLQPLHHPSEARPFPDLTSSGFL
In words: AhR direct luciferase reporter assay in HepG2 cells (HepG2 CYP1A1-LUC). Type of assay: cell-based. As to conditions: luciferase activity after 18 hours, no exogenous AhR agonist or 10 nM VAF347, read-out: AhR potency (AhR antagonistic potency, IC50). As to the method:
AhR Direct Luciferase Reporter Assay in HepG2 Cells.
A stable cell line (HepG2 CYP1A1-LUC) was used in which part of the promoter region of the human CYP1A1 gene is stably integrated into the genome of human HepG2 hepatocytes (DSZM # ACC 180) in front of a Photinus pyralis Firefly Luciferase gene. […] The resulting vector was linearized with NotI, transfected into HepG2 cells (DSMZ # ACC 180) and stably transfected clones selected with 250 μg/ml Hygromycin B. After repetitive rounds of subcloning and testing for robustly regulated luciferase activity after AhR agonist stimulation, a stable clonal HepG2 CYP1A1-Luc cell line was selected.
The HepG2 CYP1A1-Luc cells do express basal luciferase activity that can be increased via potent AhR agonists or decreased via potent AhR antagonists, added to the growth medium of the cells.
Cells are further cultivated for 18 hours and luciferase activities are determined from extracts of cells in buffers containing D-Luciferine and ATP using a LUMIstar Optima microplate Luminometer from BMG Labtech.
(In general: Reporter assays use an easily measured gene product as a stand-in for the process of interest.)
As a reminder, the IC50 is the concentration needed to halve the response being measured. Take `Cn1ncnc1C(=O)Nc1ccc2cc(-c3cc(Cl)ccc3C(F)(F)F)[nH]c2c1` [6/5]: the concentration for half-maximal inhibition (IC50) is under 100 nM. With `Cn1nccc1C(=O)Nc1ccc2cc(-c3ccc(Cl)cc3Cl)[nH]c2c1` [2/2, N-(2-(2,4-DICHLOROPHENYL)-1H-INDOL-6-YL)-1-METHYL-1H-PYRAZOLE-5-CARBOXAMIDE], the IC50 lay within 100 to 1000 nM. To `Cc1ccccc1-c1cc2ccc(NC(=O)c3ccccn3)cc2[nH]1` [3/5, N-(2-(O-TOLYL)-1H-INDOL-6-YL)PICOLINAMIDE] belongs under 100 nM; to `Cc1ccccc1-c1cc2ccc(NC(=O)c3ccnn3C(C)C)cc2[nH]1` [2/3, 1-ISOPROPYL-N-(2-(O-TOLYL)-1H-INDOL-6-YL)-1H-PYRAZOLE-5-CARBOXAMIDE], over 1000 nM.

With `Cc1ccccc1-c1cc2ccc(NC(=O)c3ccn[nH]3)cc2[nH]1` [Example 3, N-(2-(O-TOLYL)-1H-INDOL-6-YL)-1H-PYRAZOLE-5-CARBOXAMIDE], the IC50 was 100 to 1000 nM. To `Cn1ncnc1C(=O)Nc1ccc2cc(-c3ccccc3C(F)F)[nH]c2c1` [Example 6, N-(2-(2-(Difluoromethyl)phenyl)-1H-indol-6-yl)-1-methyl-1H-1,2,4-triazole-5-carboxamide] belongs under 100 nM. In the case of `Cn1nccc1C(=O)Nc1ccc2cc(-c3ccccc3C(F)(F)F)[nH]c2c1` [2/1, 1-METHYL-N-(2-(2-(TRIFLUOROMETHYL)PHENYL)-1H-INDOL-6-YL)-1H-PYRAZOLE-5-CARBOXAMIDE], the concentration for half-maximal inhibition (IC50) is under 100 nM. The value for `Cn1nccc1C(=O)Nc1ccc2cc(-c3ccccc3F)[nH]c2c1` [1/1, N-(2-(2-FLUOROPHENYL)-1H-INDOL-6-YL)-1-METHYL-1H-PYRAZOLE-5-CARBOXAMIDE] was 100 to 1000 nM. Take `Cc1ccccc1-c1cc2ccc(NC(=O)c3ncnn3C)cc2[nH]1` [3/1, 1-METHYL-N-(2-(O-TOLYL)-1H-INDOL-6-YL)-1H-1,2,4-TRIAZOLE-5-CARBOXAMIDE]: the IC50 is under 100 nM. The value for `Cn1nccc1C(=O)Nc1ccc2cc(-c3ccccc3Cl)[nH]c2c1` [Example 2, N-(2-(2-Chlorophenyl)-1H-indol-6-yl)-1-methyl-1H-pyrazole-5-carboxamide] was 100 to 1000 nM; that for `Cn1ncnc1C(=O)Nc1ccc2cc(-c3ccccc3C(F)(F)F)[nH]c2c1` [2/4, 1-METHYL-N-(2-(2-(TRIFLUOROMETHYL)PHENYL)-1H-INDOL-6-YL)-1H-1,2,4-TRIAZOLE-5-CARBOXAMIDE] was under 100 nM. Turning to `Cc1ccccc1-c1cc2ccc(NC(=O)c3cccn3C)cc2[nH]1` [3/2, 1-METHYL-N-(2-(O-TOLYL)-1H-INDOL-6-YL)-1H-PYRROLE-2-CARBOXAMIDE], the IC50 was under 100 nM. The value for `O=C(Nc1ccc2cc(-c3ccccc3C(F)(F)F)[nH]c2c1)c1ccccn1` [2/5, N-(2-(2-(TRIFLUOROMETHYL)PHENYL)-1H-INDOL-6-YL)PICOLINAMIDE] was under 100 nM; that for `Cn1nccc1C(=O)Nc1ccc2cc(-c3ccccc3C(F)F)[nH]c2c1` [6/1] was under 100 nM. Take `Cn1ncnc1C(=O)Nc1ccc2cc(-c3cc(F)ccc3C(F)F)[nH]c2c1` [6/3]: the half-maximal inhibitory concentration (IC50) was under 100 nM. The value for `Cc1cc2cc(-c3ccccc3C(F)(F)F)[nH]c2cc1NC(=O)c1ccccn1` [4/1, N-(5-METHYL-2-(2-(TRIFLUOROMETHYL)PHENYL)-1H-INDOL-6-YL)PICOLINAMIDE] was under 100 nM; that for `Cn1nccc1C(=O)Nc1ccc2cc(-c3cc(Cl)ccc3C(F)(F)F)[nH]c2c1` [6/6] was under 100 nM. In the case of `Cn1nccc1C(=O)Nc1ccc2cc(-c3cccc(Cl)c3)[nH]c2c1` [1/2, N-(2-(3-CHLOROPHENYL)-1H-INDOL-6-YL)-1-METHYL-1H-PYRAZOLE-5-CARBOXAMIDE], the IC50 lay within 100 to 1000 nM. As for `Cc1ccccc1-c1cc2ccc(NC(=O)c3ccc(O)c(C(N)=O)c3)cc2[nH]1` [3/4, 4-HYDROXY-N^1-(2-(O-TOLYL)-1H-INDOL-6-YL)ISOPHTHALAMIDE], the IC50 is over 1000 nM. The value for `Cn1nccc1C(=O)Nc1ccc2cc(-c3cc(F)ccc3C(F)F)[nH]c2c1` [6/4] was under 100 nM. Turning to `Cc1ccccc1-c1cc2ccc(NC(=O)c3ccco3)cc2[nH]1` [3/3, N-(2-(O-TOLYL)-1H-INDOL-6-YL)FURAN-2-CARBOXAMIDE], the 50% inhibitory concentration (IC50) was under 100 nM. Turning to `Cc1cc2cc(-c3ccccc3C(F)(F)F)[nH]c2cc1NC(=O)c1ncnn1C` [Example 4, 1-METHYL-N-(5-METHYL-2-(2-(TRIFLUOROMETHYL)PHENYL)-1H-INDOL-6-YL)-1H-1,2,4-TRIAZOLE-5-CARBOXAMIDE], the IC50 was under 100 nM.

Values taken from patent US20200031805A1, “ARYL HYDROCARBON RECEPTOR (AHR) MODULATOR COMPOUNDS” (PHENEX PHARMACEUTICALS AG, priority 2017, published 2020).
